# From patent US20040208828A1, “Enantiomer-pure (4S,8S)- and (4R,8R)-4-p-nitrobenzyl-8-methyl-3,6,9-triaza-3N,6N,9N-tricarboxymethyl-1,11-undecanedioic acid and derivatives thereof, process for their production and use for the production of pharmaceutical agents” (priority 2003, published 2004)
# How the values were obtained:
# [1] = compared to the unsubstituted DTPA; cited from earlier work
# [2] = complex stability / complexing properties, comparison of stereoisomers; assay type: physicochemical; details: comparison of configurations (4S,8S)/(4R,8R) with (4S,8R)/(4R,8S)
# Source text: (§1) In this case, as was discovered, the configuration of methyl- and benzyl substituent must be present as (4S,8S) (see compound Va) or (4R,8R) (see compound Vb) to achieve the described positive effect.
# [3] = thermodynamic stability constant of the metal complex (logKY); assay type: physicochemical; details: in vitro
# Source text: as §1
# [4] = radiotoxicity of the metal complex in vivo; details: compared to compound VIa
# Source text: as §1
# [5] = competition complexation: mixture of one equivalent each of Va, VIa and Gd(III) salt; assay type: physicochemical; details: one equivalent each of Va (R=-NO2)
# Source text: as §1
# [6] = McMurry et al., J. Med. Chem. (1998), 41, 3546-3549; cited from earlier work
smiles,measurement,setting,value
CC(CN(CC(=O)O)C[C@H](Cc1ccc([N+](=O)[O-])cc1)N(CC(=O)O)CC(=O)O)N(CC(=O)O)CC(=O)O (stereo partly shown) [MX-DTPA],complex stability (in words),[1],increased complex stability compared to the unsubstituted DTPA
"C[C@H](CN(CC(=O)O)C[C@@H](Cc1ccc([N+](=O)[O-])cc1)N(CC(=O)O)CC(=O)O)N(CC(=O)O)CC(=O)O [Vb, (R,R)-{[2-{[2-(Bis-carboxymethyl-amino)-propyl]-carboxymethyl-amino}-1-(4-nitro-benzyl)-ethyl]-carboxymethyl-amino}-acetic acid]",complex stability / complexing properties (in words),[2],considerably better complexing properties than compounds VIa and VIb
C[C@@H](CN(CC(=O)O)C[C@H](Cc1ccc([N+](=O)[O-])cc1)N(CC(=O)O)CC(=O)O)N(CC(=O)O)CC(=O)O [Va],thermodynamic stability constant logKY,[3],24.7±0.7
same,radiotoxicity of the metal complex,[4],reduced in vivo compared to compound VIa
same,Gd complex formed in competition,[5],almost exclusively the Gd complex of compound Va is formed
same,complex stability / complexing properties (in words),[2],considerably better complexing properties than compounds VIa and VIb
O=C(O)CN(CC(=O)O)[C@H](Cc1ccc([N+](=O)[O-])cc1)CN(CC(=O)O)[C@@H]1CCCC[C@H]1N(CC(=O)O)CC(=O)O [II],in-vitro and in-vivo stability,[6],higher in-vitro and in-vivo stability than compound III
